# From the NIST ThermoML archive (doi:10.1016/j.jct.2008.07.016)
# ± gives the expanded uncertainty stated by the source.
# Test: molar enthalpy of vaporization or sublimation
# Conditions: 298.15 K; Crystal; microcalorimetry
smiles,measurement,value
Brc1ccc2c(c1)CCN2 [5-Bromoindoline],molar enthalpy,21 ± 0.908 kcal/mol
"Brc1ccc2[nH]ccc2c1 [1H-indole, 5-bromo-]",molar enthalpy,22.1 ± 1.1 kcal/mol
